In patent publication US20230096766A1, “AMINO ACID HAVING FUNCTIONAL GROUP CAPABLE OF INTERMOLECULAR HYDROGEN BONDING, PEPTIDE COMPOUND CONTAINING SAME AND METHOD FOR PRODUCTION THEREOF” (Chugai Seiyaku Kabushiki Kaisha, priority 2018, published 2023) one finds Papp data, which are given here for 13 molecules.

Broadly, the Papp is the rate of passage across a membrane or cell layer, normalised by area and donor concentration. The low end stands for poor permeation, the high end for ready permeation.

*1 amine or outer side, *2 acyl side, *3 side chain or, on linkers, in order; H or OH if unused. Where a SMILES comes first, the peptide text is derived from it. Bridges are numbered along the chain shown (N, C = ends). [ ]: non-standard residue; d: D form. The star is where a group is joined. ξ: configuration not given here. NMePhe(3-Cl) = CN[C@@H](Cc1cccc(Cl)c1)C(=O)O; Tyr(3-F) = N[C@@H](Cc1ccc(O)c(F)c1)C(=O)O; NMeW = CN[C@@H](Cc1c[nH]c2ccccc12)C(=O)O; NMehPhe = CN[C@@H](CCc1ccccc1)C(=O)O; X9 = O=C([C@@H](CN[*:1])COCCO)[*:2]; Propyl(2,2-Me2,3-OH) = CC(C)(CO)C*; X7 = O=C(C[C@H](COCCO)N[*:1])[*:2]; NMeF = CN[C@@H](Cc1ccccc1)C(=O)O; NMeGABA = CN(CCCC(=O)[*:2])[*:1]; Butyl(3-Me,3-OH) = CC(C)(O)CC*; NMeL = CN[C@@H](CC(C)C)C(=O)O; ξNMeF = CNC(Cc1ccccc1)C(=O)O; NMeV = CN[C@H](C(=O)O)C(C)C; ξIle = CC[C@H](C)C(N)C(=O)O; NMeAbu = CC[C@H](NC)C(=O)O; NMeA = CN[C@@H](C)C(=O)O; Piperidide = C1CCN(*)CC1; X8 = C1COC[C@@H](C*)N1; NBuGly = CCCCNCC(=O)O; NPrGly = CCCNCC(=O)O; X3 = C[C@H](O)C*; Sar = CNCC(=O)O; tBu = CC(C)(C)*

A short description of the first data set: in vitro. Conditions: human, Caco-2, Caco-2 (cm/sec).
`CC[C@H]1C(=O)N[C@@H](CC(C)C)C(=O)N(C)[C@@H](CC(C)C)C(=O)N(C)[C@@H](Cc2ccccc2)C(=O)N[C@@H](Cc2ccc(O)cc2)C(=O)N(C)[C@@H](CC(C)C)C(=O)N(C)[C@@H](CC(C)C)C(=O)N[C@@H]([C@@H](C)O)C(=O)N(C)CC(=O)N(C)[C@@H](CC(C)C)C(=O)N[C@H](C(=O)N2CCCCC2)CC(=O)N1C` [Compound F05] ([NMeAbu]L[NMeL][NMeF]Y[NMeL][NMeL]T[Sar][NMeL]D-Piperidide; lactam N-11): the apparent permeability (Papp) came to 0.38 ×10⁻⁶ cm/s.
Molecule `CCCCN1CC(=O)N(C)[C@@H](CC(C)C)C(=O)N[C@H](C(=O)N2CCCCC2)CC(=O)N(C)[C@@H](CC(C)C)C(=O)N[C@@H](COCCO)CC(=O)N(C)[C@@H](CC(C)C)C(=O)N(C)[C@@H](Cc2ccccc2)C(=O)N[C@@H](CC(C)C)C(=O)N(C)[C@@H](Cc2ccccc2)C(=O)N(C)[C@@H](CC(C)C)C(=O)N[C@@H]([C@@H](C)O)C1=O` [AP23] ([NMeL][X7][NMeL][NMeF]L[NMeF][NMeL]T[NBuGly][NMeL]D-Piperidide; lactam N-11) registered an apparent permeability coefficient (Papp) of 0.43 ×10⁻⁶ cm/s.
Molecule `CC[C@H](C)[C@@H]1NC(=O)[C@H](C(C)C)N(C)C(=O)CCCN(C)C(=O)C[C@@H](C(=O)N2CCCCC2)NC(=O)[C@H](CC(C)C)N(C)C(=O)[C@H](CC(C)C)N(C)C(=O)[C@H]([C@@H](C)O)NC(=O)[C@H](CC(C)C)N(C)C(=O)[C@H](COCCC(C)(C)O)NC(=O)[C@H](Cc2cccc(Cl)c2)N(C)C(=O)[C@H](Cc2ccccc2)N(C)C1=O` [AP54] ([NMeGABA][NMeV]I[NMeF][NMePhe(3-Cl)]S(Butyl(3-Me,3-OH))[NMeL]T[NMeL][NMeL]D-Piperidide; lactam N-11) returned a Papp of 1.4 ×10⁻⁶ cm/s.
The same measure, in the same setting: then `CC[C@H](C)[C@@H]1NC(=O)[C@H](Cc2ccccc2)N(C)C(=O)[C@@H](C)NC(=O)C[C@@H](C(=O)N2CCCCC2)NC(=O)[C@H](CC(C)C)N(C)C(=O)[C@H](C)N(C)C(=O)[C@H](COC(C)(C)C)NC(=O)[C@H](C)N(C)C(=O)CN(C)C(=O)[C@H](Cc2ccc(O)cc2)NC(=O)[C@H](CC(C)C)N(C)C1=O` [pd112] ([dA][NMeF]I[NMeL]Y[Sar][NMeA]S(tBu)[NMeA][NMeL]D-Piperidide; lactam N-11), with 0.11 ×10⁻⁶ cm/s; and `CCCCN1CC(=O)N(C)[C@@H](CC)C(=O)N[C@@H](COC[C@@H]2COCCN2)C(=O)N(C)[C@@H](Cc2ccccc2)C(=O)N(C)[C@@H](CC)C(=O)N[C@H](C(=O)N2CCCCC2)CC(=O)N[C@H](CC(C)C)C(=O)N(C)[C@@H](CC(C)C)C(=O)N[C@@H]([C@@H](C)CC)C(=O)N(C)[C@@H](CC(C)C)C(=O)N[C@@H]([C@@H](C)O)C1=O` [AP240] ([dL][NMeL]I[NMeL]T[NBuGly][NMeAbu]S(X8)[NMeF][NMeAbu]D-Piperidide; lactam N-11), with 0.08 ×10⁻⁶ cm/s.
In turn, `CC[C@H](C)[C@@H]1NC(=O)[C@H](CC(C)C)N(C)C(=O)[C@@H](C)NC(=O)C[C@@H](C(=O)N2CCCCC2)NC(=O)[C@H](C)N(C)C(=O)[C@H](Cc2ccccc2)N(C)C(=O)[C@H](COC(C)(C)C)NC(=O)[C@H](CC(C)C)N(C)C(=O)CN(C)C(=O)[C@H](Cc2ccc(O)c(F)c2)NC(=O)[C@H](CC(C)C)N(C)C1=O` [pd124] ([dA][NMeL]I[NMeL][Tyr(3-F)][Sar][NMeL]S(tBu)[NMeF][NMeA]D-Piperidide; lactam N-11) displayed a Papp of 0.32 ×10⁻⁶ cm/s.
Regarding `CC[C@H]1C(=O)N(C)[C@@H](Cc2ccccc2)C(=O)N[C@@H](CC(C)C)C(=O)N(C)[C@@H](CC(C)C)C(=O)N(C)[C@@H](CC(C)C)C(=O)N[C@@H](COC[C@@H]2COCCN2)C(=O)N(C)CC(=O)N(C)[C@@H](CC(C)C)C(=O)N[C@H](C(=O)N2CCCCC2)CC(=O)N(C)[C@@H](C)C(=O)N[C@@H](CC(C)C)C(=O)N1C` [AP246] ([NMeA]L[NMeAbu][NMeF]L[NMeL][NMeL]S(X8)[Sar][NMeL]D-Piperidide; lactam N-11), the Papp stood at 0.23 ×10⁻⁶ cm/s. The Papp values of the last two molecules are within 1.5-fold of each other.
In the case of `CC[C@H](C)[C@@H]1NC(=O)[C@H](CC(C)C)N(C)C(=O)CCCN(C)C(=O)C[C@@H](C(=O)N2CCCCC2)NC(=O)[C@H](CC(C)C)N(C)C(=O)[C@H](CC(C)C)N(C)C(=O)[C@H]([C@@H](C)O)NC(=O)[C@H](CC(C)C)N(C)C(=O)[C@H](COC(C)(C)C)NC(=O)[C@H](Cc2c[nH]c3ccccc23)N(C)C(=O)[C@H](Cc2ccccc2)N(C)C1=O` [pd107] ([NMeGABA][NMeL]I[NMeF][NMeW]S(tBu)[NMeL]T[NMeL][NMeL]D-Piperidide; lactam N-11), the Papp was found to be 0.17 ×10⁻⁶ cm/s.
As for `CCCCN1CC(=O)N(C)[C@@H](CC(C)C)C(=O)N[C@@H](COCC(C)(C)CO)C(=O)N(C)[C@@H](Cc2ccccc2)C(=O)N(C)[C@@H](CC(C)C)C(=O)N[C@H](C(=O)N2CCCCC2)CC(=O)N[C@H](C(C)C)C(=O)N(C)C(Cc2ccccc2)C(=O)N[C@@H](CC(C)C)C(=O)N(C)[C@@H](CC(C)C)C(=O)N[C@@H]([C@@H](C)O)C1=O` (stereo partly drawn) [AP126] ([dV][ξNMeF]L[NMeL]T[NBuGly][NMeL]S(Propyl(2,2-Me2,3-OH))[NMeF][NMeL]D-Piperidide; lactam N-11), the Papp is 0.14 ×10⁻⁶ cm/s.
In turn, `CCCN1CC(=O)N(C)[C@@H](CC(C)C)C(=O)N[C@@H](CC(C)C)C(=O)N(C)[C@@H](Cc2ccccc2)C(=O)N(C)[C@@H](CC(C)C)C(=O)N[C@H](C(=O)N2CCCCC2)CC(=O)N[C@H](CC(C)C)C(=O)N(C)[C@@H](Cc2ccccc2)C(=O)NC[C@@H](COCCO)C(=O)N(C)[C@@H](CC(C)C)C(=O)N[C@@H]([C@@H](C)O)C1=O` [AP127] ([dL][NMeF][X9][NMeL]T[NPrGly][NMeL]L[NMeF][NMeL]D-Piperidide; lactam N-11) showed an apparent permeability (Papp) of 0.3 ×10⁻⁶ cm/s.
`CCCN1CC(=O)N(C)[C@@H](Cc2cccc(Cl)c2)C(=O)N(C)[C@@H](CC(C)C)C(=O)N[C@@H](COC[C@H](C)O)C(=O)N(C)[C@@H](CC(C)C)C(=O)N[C@H](C(=O)N2CCCCC2)CC(=O)N(C)CC(=O)N(C)[C@@H](Cc2ccccc2)C(=O)NC([C@@H](C)CC)C(=O)N(C)[C@@H](CC(C)C)C(=O)N[C@@H]([C@@H](C)O)C1=O` (stereo partly drawn) [AP68] ([Sar][NMeF][ξIle][NMeL]T[NPrGly][NMePhe(3-Cl)][NMeL]S(X3)[NMeL]D-Piperidide; lactam N-11) came in with an apparent permeability coefficient (Papp) of 0.24 ×10⁻⁶ cm/s.
In the case of `CC(C)C[C@@H]1NC(=O)[C@H](Cc2ccccc2)N(C)C(=O)[C@H](CC(C)C)N(C)C(=O)[C@H](COCCC(C)(C)O)NC(=O)[C@H](C)N(C)C(=O)C[C@@H](C(=O)N2CCCCC2)NC(=O)[C@H](CC(C)C)N(C)C(=O)CN(C)C(=O)[C@H]([C@@H](C)O)NC(=O)[C@H](CC(C)C)N(C)C(=O)[C@H](CCc2ccccc2)N(C)C1=O` [AP55] ([NMeA]S(Butyl(3-Me,3-OH))[NMeL][NMeF]L[NMehPhe][NMeL]T[Sar][NMeL]D-Piperidide; lactam N-11), the Papp stood at 1.3 ×10⁻⁶ cm/s.

Still in this data set, the particulars now being: human, Caco-2, Caco-2 (cm/sec) Papp.
Molecule `CC(C)C[C@@H]1NC(=O)[C@H]([C@@H](C)O)NC(=O)[C@H](CC(C)C)N(C)C(=O)C[C@@H](C(=O)N2CCCCC2)NC(=O)[C@H](COC(C)(C)C)NC(=O)[C@H](Cc2ccccc2)NC(=O)[C@H](C)N(C)C(=O)[C@H](Cc2ccccc2)NC(=O)CN(C)C(=O)[C@H](Cc2ccccc2)N(C)C(=O)[C@H](Cc2ccccc2)N(C)C1=O` [pd245] ([NMeL]TL[NMeF][NMeF][Sar]F[NMeA]FS(tBu)D-Piperidide; lactam N-11) displayed a Papp of 0.019 ×10⁻⁶ cm/s.
